According to publication PMC3871636 (PLoS ONE, 2013):

Assays:
[1] = target: CYP3A4 (double-labeled (C64/C468)-DY/ER) (Homo sapiens, UniProt P08684, form not given/S18F); test: Steady-state LRET titration (delayed emission); type: binding; settings: human, purified double-labeled CYP3A4 (C64/C468)-DY/ER protein, pH 7.4; (C64/C468)-DY/ER; LRET titration; read-out: K d, steady-state fluorescence
Procedure: (§1) All absorbance and fluorescence assays (including the time-resolved fluorescence measurements) were performed at a protein concentration ≤1 µM at 25°C with continuous stirring. Absorbance spectra were recorded with an S2000 rapid scanning CCD spectrometer (Ocean Optics). Ligand binding assays were done in 100 mM Na-Hepes buffer, pH 7.4, containing 0.5 mM EDTA.
(§2) Fluorescence-based ligand binding assays were done under anaerobic conditions. Anaerobiosis was achieved using an oxygen-scavenging system consisting of protecatechuate-3,4-dioxygenase (0.5 units/ml) and 5 mM protocatechuic acid. The steady state and time-resolved phosphorescence measurements were performed with the use of a Cary Eclipse fluorescence spectrophotometer (Varian/Agilent Technologies). The excitation wavelength was set to 540 nm. Spectra were taken from 650 to 860 nm with 100 µs delay.
(§3) Quantitative interpretation of LRET results was also based on the use of PCA applied to a series of emission spectra normalized on integral intensity. […] Intensity of the donor and acceptor fluorescence obtained in this way were used in determination of the efficiency of steady-state LRET using the equation [drawing 1] (Eq.1) where I ad is emission intensity of the acceptor, I da is the residual donor emission in the presence of acceptor (I da), Φ a and Φ d are the quantum yield of the fluorescence of acceptor and the quantum yield of the phosphorescence of donor, respectively.
(§4) Distances were calculated using the equation: [drawing 3] (Eq.3) where R 0 is the Förster distance, and R is the distance between the donor and acceptor. R 0 was calculated with the use of PhotoChemCad software. In these calculations, we used the values of the orientation factor (κ^2) and the refractive index (n) of 0.667 and 1.4, respectively.
(§5) When fitting the results of titration experiments, where the changes in the monitored signal A S (fraction of the enzyme in the high-spin state, intensity or the lifetime of the donor phosphorescence at a given substrate concentration) were assumed to be proportional to [ES], this equation was complemented with the offset A 0 and the scaling factor A max to yield the following relationship: [drawing 5] (Eq.5)

[2] = target: CYP3A4 (double-labeled (C64/C468)-ER/DY) (Homo sapiens, UniProt P08684, form not given/S18F); test: Steady-state LRET titration (delayed emission); type: binding; settings: human, purified double-labeled CYP3A4 (C64/C468)-ER/DY protein, pH 7.4; (C64/C468)-ER/DY; LRET titration; read-out: K d, steady-state fluorescence
Procedure: as §1, §2, §3, §4, §5

[3] = target: T1, double-labeled CYP3A4 (C64/C468)-ER/DY (Homo sapiens, UniProt P08684, S18F, form not given); test: Steady-state LRET titration (delayed emission); type: binding
Procedure: as §1, §2, §3, §4, §5

[4] = target: T2, double-labeled CYP3A4 (C64/C468)-DY/ER (Homo sapiens, UniProt P08684, S18F, form not given); test: Steady-state LRET titration (delayed emission); type: binding
Procedure: as §1, §2, §3, §4, §5

[5] = target: T3, double-labeled CYP3A4 C377/C468-DY/ER (Homo sapiens, UniProt P08684, S18F, form not given); test: Steady-state LRET titration (delayed emission); type: binding; settings: Table S2, protein C377/C468-ER/DY
Procedure: as §1, §2, §3, §4, §5

[6] = target: T1, double-labeled CYP3A4 (C64/C468)-ER/DY; test: Time-resolved LRET (phosphorescence lifetime measurements)
Description: (§6) The excitation wavelength was set to 540 nm.

[7] = target: T2, double-labeled CYP3A4 (C64/C468)-DY/ER; test: as above
Description: as §6

[8] = target: T3, double-labeled CYP3A4 C377/C468-DY/ER; test: as above
Description: as §6

[9] = target: T4, double-labeled CYP3A4 C64/C121-DY/ER (Homo sapiens, UniProt P08684, A121C/C239S/C377S/C468A/C98S/S18F); test: as above; settings: same ligand concentrations
Procedure: as §1, §2
The treatment of the time-resolved decay traces was performed using a bi-exponential approximation. The efficiency of time-resolved LRET was calculated using the equation [drawing 2] (Eq.2)
In this equation τda and τd designate the average lifetime of the excited state of the donor in the presence and absence of the acceptor, respectively. These average lifetimes are determined as τ = α1τ1+α2τ2, where τ1,2 and α1,2 stay for the lifetime and the relative amplitude of each of the two exponential terms. In our calculations of the lifetime in double-labeled C64/C468, C377/C468 and C64/C121 proteins we used the lifetimes of phosphorescence measured with the respective proteins labeled with ERIA at a label:protein ratio 2∶1 as the estimates of τd.
as §4

[10] = target: T4, double-labeled CYP3A4 C64/C121-DY/ER; test: Steady-state LRET titration (delayed emission); settings: Table S2; protein C64/C121-ER/DY; same ligand concentrations
Procedure: as §1, §2, §3, §4, §5

[11] = Table S2, C64/C468-ER/DY, 1-PB 40 µM, ANF 100 µM, BCT 2.5 µM, cholesterol 100 µM, testosterone 100 µM
[12] = Table S2, C64/C468-ER/DY, same ligand concentrations
[13] = Table S2, C64/C468-DY/ER, 1-PB 40 µM, ANF 100 µM, BCT 2.5 µM, cholesterol 100 µM, testosterone 100 µM
[14] = Table S2, C64/C468-DY/ER, same ligand concentrations
[15] = (C64/C468)-ER/DY, nearly-saturating ligand: ANF 100 µM, bromocriptine 2.5 µM, cholesterol 50 µM, testosterone 100 µM
[16] = Table S1, (C64/C468)-ER/DY, same ligand concentrations
[17] = (C64/C468)-DY/ER, nearly-saturating ligand: ANF 100 µM, bromocriptine 2.5 µM, cholesterol 50 µM, testosterone 100 µM
[18] = Table S1, (C64/C468)-DY/ER, same ligand concentrations
[19] = Table S1, protein (C377/C468)-ER/DY, same ligand concentrations
[20] = Table S2, protein C377/C468-ER/DY, same ligand concentrations
[21] = Table S1, protein (C64/C121)-ER/DY
[22] = Table S2, protein C64/C121-ER/DY

T1 sequence (P08684 13-503 S18F, form open): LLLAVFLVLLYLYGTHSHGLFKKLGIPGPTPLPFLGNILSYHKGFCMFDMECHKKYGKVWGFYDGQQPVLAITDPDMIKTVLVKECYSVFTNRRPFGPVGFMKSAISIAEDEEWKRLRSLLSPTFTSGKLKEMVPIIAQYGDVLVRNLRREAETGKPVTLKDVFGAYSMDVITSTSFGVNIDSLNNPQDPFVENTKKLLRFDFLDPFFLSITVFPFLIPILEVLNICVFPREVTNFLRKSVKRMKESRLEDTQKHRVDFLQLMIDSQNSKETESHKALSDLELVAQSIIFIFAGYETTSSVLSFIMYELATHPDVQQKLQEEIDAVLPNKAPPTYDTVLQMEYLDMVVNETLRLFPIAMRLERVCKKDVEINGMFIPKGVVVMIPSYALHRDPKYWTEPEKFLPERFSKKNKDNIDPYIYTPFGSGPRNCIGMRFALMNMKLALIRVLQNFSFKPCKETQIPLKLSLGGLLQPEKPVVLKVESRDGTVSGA
T3 sequence (P08684 13-503 S18F, form open): as above
T2 sequence (P08684 13-503 S18F, form open): as above
T4 sequence (P08684 with tags, fused parts or gaps S18F/C98S/A121C/C239S/C377S/C468A limits assumed): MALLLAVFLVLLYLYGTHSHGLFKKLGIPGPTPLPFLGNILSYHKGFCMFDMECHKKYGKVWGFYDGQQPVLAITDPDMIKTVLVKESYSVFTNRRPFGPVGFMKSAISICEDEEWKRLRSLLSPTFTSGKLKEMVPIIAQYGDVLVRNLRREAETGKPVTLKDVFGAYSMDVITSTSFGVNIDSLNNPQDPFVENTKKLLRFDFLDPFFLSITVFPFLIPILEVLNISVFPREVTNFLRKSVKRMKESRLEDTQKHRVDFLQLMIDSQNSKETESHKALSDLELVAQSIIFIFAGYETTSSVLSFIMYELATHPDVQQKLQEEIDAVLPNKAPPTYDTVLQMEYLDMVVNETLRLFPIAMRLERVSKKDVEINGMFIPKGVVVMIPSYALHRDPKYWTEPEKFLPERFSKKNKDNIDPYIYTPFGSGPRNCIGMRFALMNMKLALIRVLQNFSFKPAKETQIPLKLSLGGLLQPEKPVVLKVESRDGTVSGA
CYP3A4 (double-labeled (C64/C468)-ER/DY), sequence (P08684 13-503 S18F, form open): as the sequence (P08684 13-503 S18F, form open) above
CYP3A4 (double-labeled (C64/C468)-DY/ER), sequence (P08684 13-503 S18F, form open): as above

CC(C)CCC[C@@H](C)[C@H]1CC[C@H]2[C@@H]3CC=C4C[C@@H](O)CC[C@]4(C)[C@H]3CC[C@]12C [Cholesterol, cholesterol]
Kd [1]: 6.5 ± 1.1 µM | Kd [2]: 7.7 ± 0.9 µM | ΔR (change in interprobe distance), steady-state fluorescence ([3]; (C64/C468)-ER/DY): 3.5±0.7 Å | ΔE (change in LRET efficiency), steady-state fluorescence ([3]; (C64/C468)-ER/DY, from maximal relative change in donor intensity): −10±5% | E (LRET efficiency with ligand), steady-state measurements [3, 11]: 19 ± 1% | R (interprobe distance with ligand), steady-state measurements [3, 12]: 42.6 ± 0.7 Å | ΔR, steady-state measurements [3, 12]: 3.5 ± 0.7 Å | ΔR (change in interprobe distance), steady-state fluorescence ([4]; (C64/C468)-DY/ER): 5.9±2.0 Å | ΔE (change in LRET efficiency), steady-state fluorescence ([4]; (C64/C468)-DY/ER, from maximal relative change in donor intensity): −11±1% | E (LRET efficiency with ligand), steady-state measurements [4, 13]: 24 ± 1% | R (interprobe distance with ligand), steady-state measurements [4, 14]: 40.8 ± 2.0 Å | ΔR, steady-state measurements [4, 14]: 5.9 ± 2.0 Å | E (LRET efficiency with ligand), steady-state measurements ([5]; 1-PB 40 µM, ANF 100 µM, BCT 2.5 µM, cholesterol 100 µM, testosterone 100 µM): 14 ± 0% | R (interprobe distance with ligand), steady-state measurements ([5]; same ligand concentrations): 45.2 ± 0.1 Å | ΔR, steady-state measurements ([5]; same ligand concentrations): 0.5 ± 0.1 Å | ΔELT (change in LRET efficiency), lifetime measurements [6, 15]: −16.6±1% | ΔR (change in interprobe distance), lifetime measurements [6, 15]: 4.8±0.2 Å | τ1 (phosphorescence decay time with ligand) ([6]; Table S1, (C64/C468)-ER/DY, 1-PB 40 µM, ANF 100 µM, BCT 2.5 µM, cholesterol 100 µM, testosterone 100 µM, bi-exponential fit): 79 ± 1 µs | F1 (fraction of first exponential) [6, 16]: 53 ± 7% | τ2 (phosphorescence decay time with ligand) [6, 16]: 268 ± 2 µs | τav (average phosphorescence lifetime with ligand) [6, 16]: 173 ± 1 µs | E (LRET efficiency with ligand), lifetime measurements [6, 11]: 26 ± 1% | R (interprobe distance with ligand), lifetime measurements [6, 12]: 41.1± 0.2 Å | ΔR, lifetime measurements [6, 12]: 4.8 ± 0.2 Å | ΔELT (change in LRET efficiency), lifetime measurements [7, 17]: −5.9±3% | ΔR (change in interprobe distance), lifetime measurements [7, 17]: 1.6±1.0 Å | τ1 (phosphorescence decay time with ligand) ([7]; Table S1, (C64/C468)-DY/ER, 1-PB 40 µM, ANF 100 µM, BCT 2.5 µM, cholesterol 100 µM, testosterone 100 µM, bi-exponential fit): 59 ± 1 µs | F1 (fraction of first exponential) [7, 18]: 43 ± 2% | τ2 (phosphorescence decay time with ligand) [7, 18]: 221 ± 1 µs | τav (average phosphorescence lifetime with ligand) [7, 18]: 152 ± 6 µs | E (LRET efficiency with ligand), lifetime measurements [7, 13]: 35 ± 3% | R (interprobe distance with ligand), lifetime measurements [7, 14]: 38.3 ± 0.7 Å | ΔR, lifetime measurements [7, 14]: 1.6 ± 0.7 Å | τ1 (phosphorescence decay time with ligand) ([8]; Table S1, protein (C377/C468)-ER/DY, 1-PB 40 µM, ANF 100 µM, BCT 2.5 µM, cholesterol 100 µM, testosterone 100 µM, bi-exponential fit): 38 ± 1 µs | F1 (fraction of first exponential) [8, 19]: 23 ± 5% | τ2 (phosphorescence decay time with ligand) [8, 19]: 163 ± 8 µs | τav (average phosphorescence lifetime with ligand) [8, 19]: 134 ± 3 µs | E (LRET efficiency with ligand), lifetime measurements ([8]; Table S2, protein C377/C468-ER/DY, 1-PB 40 µM, ANF 100 µM, BCT 2.5 µM, cholesterol 100 µM, testosterone 100 µM): 26 ± 2% | R (interprobe distance with ligand), lifetime measurements [8, 20]: 41.0 ± 0.6 Å | ΔR, lifetime measurements [8, 20]: 4.2 ± 0.6 Å | F1 (fraction of first exponential) [9, 21]: 44 ± 3% | τ2 (phosphorescence decay time with ligand) [9, 21]: 222 ± 8 µs | τav (average phosphorescence lifetime with ligand) [9, 21]: 154 ± 1 µs | R (interprobe distance with ligand), lifetime measurements [9, 22]: 35.8 ± 0.1 Å | ΔR, lifetime measurements [9, 22]: 0.8 ± 0.1 Å | R (interprobe distance with ligand), steady-state measurements [10]: 43.6 ± 0.5 Å | ΔR, steady-state measurements [10]: 1.0 ± 0.5 Å
